For 24 molecules, IC50 and Ki results are on record in patent US9873709B2 (priority 2013, dated 2018).

Where two headings read alike, the source gives them in different places.

In test [1] the test system is JAK1-dependent STAT6 phosphorylation downstream of IL-13 stimulation in TF-1 human erythroleukemia cells. Put plainly: cells. The conditions noted are these: TF-1, read-out: IL-13-pSTAT6 IC50.
The target in test [2] is isolated recombinant JAK2 kinase domain (Homo sapiens (Human), UniProt O60674). The settings on record: read-out: JAK2 Ki.
Chain of isolated recombinant JAK2 kinase domain (O60674 849-1124): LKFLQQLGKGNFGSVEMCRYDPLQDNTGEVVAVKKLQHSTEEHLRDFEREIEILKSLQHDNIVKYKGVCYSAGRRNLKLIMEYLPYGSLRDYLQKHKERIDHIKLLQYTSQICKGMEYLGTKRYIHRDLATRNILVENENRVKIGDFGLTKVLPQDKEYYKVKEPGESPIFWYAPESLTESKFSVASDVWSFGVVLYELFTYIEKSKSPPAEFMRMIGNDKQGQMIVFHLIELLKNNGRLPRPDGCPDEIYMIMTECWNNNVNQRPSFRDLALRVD
Setting [3] is: isolated recombinant JAK2 kinase domain, 25 μM ATP.

With `CN1CCC(N(C)C(=O)c2ccc(Nc3nc4c(N5CCC(O)(c6ccc(C#N)cc6)CC5)cccn4n3)cc2)CC1` [Example 1-21, 4-[[8-[4-(4-cyanophenyl)-4-hydroxy-1-piperidyl]-[1,2,4]triazolo[1,5-a]pyridin-2-yl]amino]-N-methyl-N-(1-methyl-4-piperidyl)benzamide], the IC50 (commonly the concentration needed to halve the response being measured) in test [1] worked out at 333 nM. For the same molecule, the Ki (as a rule, the dissociation constant of the complex between target and ligand, obtained from inhibition or displacement) in test [2] (setting [3]) came out at 6.49 nM.

On to `CN1CCC(N(C)C(=O)c2ccc(Nc3nc4c(N5CCC(OCC#N)CC5)cccn4n3)cc2)CC1` [Example 1-23, 4-[[8-[4-(cyanomethoxy)-1-piperidyl]-[1,2,4]triazolo[1,5-a]pyridin-2-yl]amino]-N-methyl-N-(1-methyl-4-piperidyl)benzamide], for which the IC50 in test [1] came out at 73.7 nM. For the same molecule, the Ki in test [2] (setting [3]) was 2.5 nM.

For `CN1CCC(N(C)C(=O)c2ccc(Nc3nc4c(N5CCC(CC(N)=O)(c6ccccc6)CC5)cccn4n3)cc2)CC1` [Example 1-30, 4-[[8-[4-(2-amino-2-oxo-ethyl)-4-phenyl-1-piperidyl]-[1,2,4]triazolo[1,5-a]pyridin-2-yl]amino]-N-methyl-N-(1-methyl-4-piperidyl)benzamide], in test [1], the IC50 was found to be 252 nM. Besides, in test [2] (setting [3]), the Ki was 0.27 nM.

In the case of `CN1CCC(N(C)C(=O)c2ccc(Nc3nc4c(N5CCN(C(=O)N6CC(C)(C)C6)CC5)cccn4n3)cc2)CC1` [Example 1-34, 4-[[8-[4-(3,3-dimethylazetidine-1-carbonyl)piperazin-1-yl]-[1,2,4]triazolo[1,5-a]pyridin-2-yl]amino]-N-methyl-N-(1-methyl-4-piperidyl)benzamide], the IC50 in test [1] is 916 nM. In addition, the Ki in test [2] (setting [3]) amounted to 8.61 nM.

With `CCc1ccc(C2(O)CCN(c3cccn4nc(Nc5ccc(C(=O)N(C)C6CCN(C)CC6)cc5)nc34)CC2)cc1` [Example 1-36, 4-[[8-[4-(4-ethylphenyl)-4-hydroxy-1-piperidyl]-[1,2,4]triazolo[1,5-a]pyridin-2-yl]amino]-N-methyl-N-(1-methyl-4-piperidyl)benzamide], the IC50 in test [1] is 142 nM. Also, in test [2] (setting [3]), the Ki was found to be 4.32 nM.

Turning to `COCCOc1cc(COC2CCN(c3cccn4nc(Nc5ccc(C(=O)N(C)C6CCN(C)CC6)cc5)nc34)CC2)ccn1` [Example 1-44, 4-[[8-[4-[[2-(2-methoxyethoxy)-4-pyridyl]methoxy]-1-piperidyl]-[1,2,4]triazolo[1,5-a]pyridin-2-yl]amino]-N-methyl-N-(1-methyl-4-piperidyl)benzamide], the IC50 in test [1] came out at 168 nM. For the same molecule, the inhibition constant Ki in test [2] (setting [3]) was 7.03 nM.

Consider `CN1CCN(C2CCN(C(=O)c3ccc(Nc4nc5c(N6CCC(O)(c7ccc(Cl)cc7)CC6)cccn5n4)cc3)CC2)CC1` [Example 1-117, [4-[[8-[4-(4-chlorophenyl)-4-hydroxy-1-piperidyl]-[1,2,4]triazolo[1,5-a]pyridin-2-yl]amino]phenyl]-[4-(4-methylpiperazin-1-yl)-1-piperidyl]methanone], for which the IC50 in test [1] is 29.2 nM. The Ki in test [2] (setting [3]) is 0.85 nM.

Turning to `O=C(c1ccc(Nc2nc3c(N4CCC(O)(c5ccc(Cl)cc5)CC4)cccn3n2)cc1)N1CCN(Cc2cccnc2)CC1` [Example 1-123, [4-[[8-[4-(4-chlorophenyl)-4-hydroxy-1-piperidyl]-[1,2,4]triazolo[1,5-a]pyridin-2-yl]amino]phenyl]-[4-(3-pyridylmethyl)piperazin-1-yl]methanone], in test [1], the IC50 was 25.8 nM. Besides, the Ki in test [2] (setting [3]) stood at 0.7 nM.

As to `CC(C)N1CCC(CN(C)C(=O)c2ccc(Nc3nc4c(N5CCC(O)(c6ccc(Cl)cc6)CC5)cccn4n3)cc2)C1` (stereo not drawn) [Example 1-129, 4-[[8-[4-(4-chlorophenyl)-4-hydroxy-1-piperidyl]-[1,2,4]triazolo[1,5-a]pyridin-2-yl]amino]-N-[(1-isopropylpyrrolidin-3-yl)methyl]-N-methyl-benzamide], in test [1], the IC50 worked out at 37.7 nM. In addition, the Ki in test [2] (setting [3]) came out at 1.74 nM.

For `CN(Cc1cccnc1)C(=O)c1ccc(Nc2nc3c(N4CCC(O)(c5ccc(Cl)cc5)CC4)cccn3n2)cc1` [Example 1-138, 4-[[8-[4-(4-chlorophenyl)-4-hydroxy-1-piperidyl]-[1,2,4]triazolo[1,5-a]pyridin-2-yl]amino]-N-methyl-N-(3-pyridylmethyl)benzamide], the IC50 in test [1] came to 135 nM. For the same molecule, the inhibitory constant (Ki) in test [2] (setting [3]) came to 3.56 nM.

On to `CN(C)CCN1CCN(C(=O)c2ccc(Nc3nc4c(N5CCC(O)(c6ccc(Cl)cc6)CC5)cccn4n3)cc2)CC1` [Example 1-139, [4-[[8-[4-(4-chlorophenyl)-4-hydroxy-1-piperidyl]-[1,2,4]triazolo[1,5-a]pyridin-2-yl]amino]phenyl]-[4-[2-(dimethylamino)ethyl]piperazin-1-yl]methanone], for which the IC50 in test [1] stood at 20.6 nM. Further, in test [2] (setting [3]), the Ki was 1.95 nM.

On to `O=C(c1ccc(Nc2nc3c(N4CCC(O)(c5ccc(Cl)cc5)CC4)cccn3n2)cc1)N1CCCC1c1ccncc1` (stereo not drawn) [Example 1-147, [4-[[8-[4-(4-chlorophenyl)-4-hydroxy-1-piperidyl]-[1,2,4]triazolo[1,5-a]pyridin-2-yl]amino]phenyl]-[2-(4-pyridyl)pyrrolidin-1-yl]methanone], for which the IC50 in test [1] was 66.5 nM. The Ki in test [2] (setting [3]) is 1.41 nM.

As for `CNC(=O)C1CN(C(=O)c2ccc(Nc3nc4c(N5CCC(O)(c6ccc(Cl)cc6)CC5)cccn4n3)cc2)CCN1Cc1ccccc1` (stereo not drawn) [Example 1-153, 1-benzyl-4-[4-[[8-[4-(4-chlorophenyl)-4-hydroxy-1-piperidyl]-[1,2,4]triazolo[1,5-a]pyridin-2-yl]amino]benzoyl]-N-methyl-piperazine-2-carboxamide], in test [1], the 50% inhibitory concentration (IC50) came out at 26 nM. Also, in test [2] (setting [3]), the Ki is 1.14 nM.

As to `CN1CCC(CCNC(=O)c2ccc(Nc3nc4c(N5CCC(O)(c6ccc(Cl)cc6)CC5)cccn4n3)cc2)CC1` [Example 1-154, 4-[[8-[4-(4-chlorophenyl)-4-hydroxy-1-piperidyl]-[1,2,4]triazolo[1,5-a]pyridin-2-yl]amino]-N-[2-(1-methyl-4-piperidyl)ethyl]benzamide], the IC50 in test [1] came to 37.3 nM. In addition, the Ki in test [2] (setting [3]) is 0.64 nM.

As for `N#CCCN1CCN(C(=O)c2ccc(Nc3nc4c(N5CCC(O)(c6ccc(Cl)cc6)CC5)cccn4n3)cc2)CC1` [Example 1-167, 3-[4-[4-[[8-[4-(4-chlorophenyl)-4-hydroxy-1-piperidyl]-[1,2,4]triazolo[1,5-a]pyridin-2-yl]amino]benzoyl]piperazin-1-yl]propanenitrile], the IC50 in test [1] came to 12.1 nM. The Ki in test [2] (setting [3]) was 2.86 nM.

Take `CN1CCCC(CN(C)C(=O)c2ccc(Nc3nc4c(N5CCC(O)(c6ccc(Cl)cc6)CC5)cccn4n3)cc2)C1` (stereo not drawn) [Example 1-170, 4-[[8-[4-(4-chlorophenyl)-4-hydroxy-1-piperidyl]-[1,2,4]triazolo[1,5-a]pyridin-2-yl]amino]-N-methyl-N-[(1-methyl-3-piperidyl)methyl] benzamide]: the IC50 in test [1] turned out to be 15.5 nM. Moreover, the Ki in test [2] (setting [3]) was 0.98 nM.

`O=C(NCCN1CCCCC1)c1ccc(Nc2nc3c(N4CCC(O)(c5ccc(Cl)cc5)CC4)cccn3n2)cc1` [Example 1-173, 4-[[8-[4-(4-chlorophenyl)-4-hydroxy-1-piperidyl]-[1,2,4]triazolo[1,5-a]pyridin-2-yl]amino]-N-[2-(1-piperidyl)ethyl]benzamide]: in test [1], the half-maximal inhibitory concentration (IC50) amounted to 23.1 nM. The Ki in test [2] (setting [3]) amounted to 2.45 nM.

Regarding `CNC(=O)C1CN(C(C)C)CCN1C(=O)c1ccc(Nc2nc3c(N4CCC(O)(c5ccc(Cl)cc5)CC4)cccn3n2)cc1` (stereo not drawn) [Example 1-174, 1-[4-[[8-[4-(4-chlorophenyl)-4-hydroxy-1-piperidyl]-[1,2,4]triazolo[1,5-a]pyridin-2-yl]amino]benzoyl]-4-isopropyl-N-methyl-piperazine-2-carboxamide], in test [1], the IC50 is 31.1 nM. The Ki in test [2] (setting [3]) was found to be 2.31 nM.

`CN1CCC(OC(=O)c2ccc(Nc3nc4c(N5CCC(O)(c6ccc(Cl)cc6)CC5)cccn4n3)cc2)CC1` [Example 1-178, (1-methyl-4-piperidyl) 4-[[8-[4-(4-chlorophenyl)-4-hydroxy-1-piperidyl]-[1,2,4]triazolo[1,5-a]pyridin-2-yl]amino]benzoate]: in test [1], the IC50 turned out to be 98.3 nM. Besides, the inhibition constant Ki in test [2] (setting [3]) was 1.07 nM.

Consider `CN1CCC(N(C)C(=O)c2ccc(Nc3nc4c(N5CCC(CO)(c6ccc(Cl)cc6)CC5)cccn4n3)cc2)CC1` [Example 1-246], for which the IC50 in test [1] is 5.4 nM. For the same molecule, the Ki in test [2] turned out to be 0.33 nM.

Turning to `CN1CCC(N(C)C(=O)c2ccc(Nc3nc4c(C5=CCC(CC#N)(c6ccc(Cl)cc6)CC5)cccn4n3)cc2)CC1` (stereo not drawn) [Example 1-294, 4-([8-[4-(4-chlorophenyl)-4-(cyanomethyl)cyclohex-1-en-1-yl]-[1,2,4]triazolo[1,5-a]pyridin-2-yl]amino)-N-methyl-N-(1-methylpiperidin-4-yl)benzamide], in test [1], the IC50 came out at 62.7 nM. In addition, the Ki in test [2] is 0.4 nM.

As to `CC(C)CN1CCC(N(C)C(=O)Cn2cc(Nc3nc4c(C5=CCN(C(=O)CCC(F)(F)F)CC5)cccn4n3)cn2)CC1` [Example 1-297, N-methyl-N-[1-(2-methylpropyl)piperidin-4-yl]-2-[4-([8-[1-(4,4,4-trifluorobutanoyl)-1,2,3,6-tetrahydropyridin-4-yl]-[1,2,4]triazolo[1,5-a]pyridin-2-yl]amino)-1H-pyrazol-1-yl]acetamide], the IC50 in test [1] came out at 36.7 nM. Also, in test [2], the Ki turned out to be 9.44 nM.

In the case of `CN1CCC(N(C)C(=O)c2ccc(Nc3nc4c(N5CCC(CC(N)=O)(c6ccc(Cl)cc6)CC5)cccn4n3)cc2)CC1` [Example 1-298], the concentration for half-maximal inhibition (IC50) in test [1] was 125 nM. Moreover, the Ki in test [2] (setting [3]) was 0.45 nM.

Turning to `CN1CCC(N(C)C(=O)c2ccc(Nc3nc4c(N5CCC(CC(=O)N(C)C)(c6ccc(Cl)cc6)CC5)cccn4n3)cc2)CC1` [Example 1-300, 4-([8-[4-(4-chlorophenyl)-4-[(dimethylcarbamoyl)methyl]piperidin-1-yl]-[1,2,4]triazolo[1,5-a]pyridin-2-yl]amino)-N-methyl-N-(1-methylpiperidin-4-yl)benzamide], the IC50 in test [1] stood at 26.3 nM. Moreover, the Ki in test [2] (setting [3]) was found to be 0.55 nM.
